# Data reported in patent publication US4987132A, “Saturated heterocyclic carboxamide derivatives” (Yamanouchi Pharmaceutical Co., Ltd., priority 1987, dated 1991).
# Counter-ions that a name gives are not always drawn. Like-named read-outs stand apart in the source and are kept apart here.
# Legend:
# Assay type in all cases: cell-based, rabbit (Japan white, male)
# [1] = system: platelet aggregation induced by ADP; experiment: platelet aggregation induced by ADP; details: ADP 3×10^-6 M; data not shown
# Description: (§1) Method: Nine volumes of blood were drawn from the central ear artery of male rabbit (Japan white, 3 kg) directly into plastic syringe containing 1 volume of 3.8% sodium citrate. The blood was centrifuged at 270×g for 10 minutes at room temperature and the platelet rich plasma (PRP) was removed. The pellet was further centrifuged at 1,100×g for 15 minutes. The supernatant was used as platelet poor plasma (PPP). The platelet concentration was adjusted to 5×10^5 cells/μl with PPP. Platelet aggregation was measured by the method of G. V. R. Born and M. J. Cross [Journal of Physiology, 168, 178-195 (1963)] using a HEMA TRACER (Nikou Bio Science, Japan). […] The extent of platelet aggregation was determined by the maximum change of light transmission, assigning the transmission of unstimulated PRP to be 0% and that of PPP to be as 100%. Percent inhibition with compound was calculated by dividing the percent aggregation in the presence of compound by that in the control, and then the IC50 values were calculated.
# [2] = system: platelet aggregation induced by collagen; experiment: platelet aggregation induced by collagen; details: collagen 10 μg/ml; data not shown
# Description: as §1
# [3] = system: platelet activating factor (PAF)-induced rabbit platelet aggregation in plasma; experiment: PAF-induced platelet aggregation in rabbit platelet rich plasma; details: Oryctolagus cuniculus, Platelet, PAF 10^-8 M, compound added 2 minutes prior to PAF, rabbit PRP
# Description: Method: Nine volumes of blood were drawn from the central ear artery of male rabbit (Japan white, 3 kg) directly into plastic syringe containing 1 volume of 3.8% sodium citrate. The blood was centrifuged at 270×g for 10 minutes at room temperature and the platelet rich plasma (PRP) was removed. The pellet was further centrifuged at 1,100×g for 15 minutes. The supernatant was used as platelet poor plasma (PPP). The platelet concentration was adjusted to 5×10^5 cells/μl with PPP. Platelet aggregation was measured by the method of G. V. R. Born and M. J. Cross [Journal of Physiology, 168, 178-195 (1963)] using a HEMA TRACER (Nikou Bio Science, Japan). Varying concentration of compounds were added to the PRP 2 minutes prior to PAF (10^-8 M). The extent of platelet aggregation was determined by the maximum change of light transmission, assigning the transmission of unstimulated PRP to be 0% and that of PPP to be as 100%. Percent inhibition with compound was calculated by dividing the percent aggregation in the presence of compound by that in the control, and then the IC50 values were calculated.
# [4] = system: platelet aggregation induced by arachidonic acid; experiment: platelet aggregation induced by arachidonic acid; details: arachidonic acid 1×10^-4 M; data not shown
# Description: as §1
SMILES,inhibition of platelet aggregation induced by ADP [1],inhibition of platelet aggregation induced by collagen [2],IC50 ([3]; read-out: IC50 values) [nM],"IC50 ([3]; Table 1, read-out: IC50) [nM]",inhibition of platelet aggregation induced by arachidonic acid [4]
Cc1ccc(CCCN2CCN(C(=O)C3CSC(c4cccnc4)N3)CC2)cc1 (stereo not drawn) [Example 119],did not inhibit,did not inhibit,28 to 85,79,did not inhibit
O=C(CCCN1CCN(C(=O)C2CSC(c3cccnc3)N2)CC1)c1ccc(Br)cc1 (stereo not drawn) [Example 67],did not inhibit,did not inhibit,28 to 85,71,did not inhibit
"CCCCCCCCN1CCN(C(=O)C2CSC(c3cccnc3)N2)CC1 (stereo not drawn) [Example 90, 1-octyl-4-[2-(3-pyridyl)thiazolidin-4-ylcarbonyl]piperazine fumarate]",did not inhibit,did not inhibit,28 to 85,67,did not inhibit
